Results from ChEMBL document CHEMBL1147836, “Benzo[b]thiophene-2-carboxamides and benzo[b]furan-2-carboxamides are potent antagonists of the human H3-receptor” (Bioorg Med Chem Lett, 2006).

The compounds below were run against Histamine H3 receptor (Homo sapiens, UniProt Q9Y5N1) (assay: Antagonist activity at human histamine H3 receptor by [35S]GTP-gamma-S assay).
Type: functional

Histamine H3 receptor, sequence (Q9Y5N1 whole entry): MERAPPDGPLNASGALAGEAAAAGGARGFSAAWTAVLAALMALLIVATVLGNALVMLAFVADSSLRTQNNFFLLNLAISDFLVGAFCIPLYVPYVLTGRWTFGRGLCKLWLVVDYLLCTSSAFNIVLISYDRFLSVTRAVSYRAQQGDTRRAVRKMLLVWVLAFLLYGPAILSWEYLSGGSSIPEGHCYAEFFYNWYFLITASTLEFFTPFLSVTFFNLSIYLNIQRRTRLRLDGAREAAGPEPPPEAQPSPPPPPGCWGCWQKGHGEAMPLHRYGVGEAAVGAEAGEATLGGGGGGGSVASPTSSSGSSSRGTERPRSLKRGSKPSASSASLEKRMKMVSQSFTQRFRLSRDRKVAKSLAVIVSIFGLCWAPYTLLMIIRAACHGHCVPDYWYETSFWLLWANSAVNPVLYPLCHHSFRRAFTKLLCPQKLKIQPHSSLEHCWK

Row | Ki [nM] | SMILES
1 | 22 | O=C(c1cc2ccc(C(F)(F)F)cc2o1)N1CCC[C@H]1CN1CCCCC1
2 | 7 | CCOc1cccc2cc(C(=O)N3CCC[C@H]3CN3CCCC3)oc12
3 | 5 | N#Cc1ccc2oc(C(=O)N3CCC[C@H]3CN3CCCC3)cc2c1
4 | > 150 | O=C(c1cnc2ccccc2c1)N1CCC[C@H]1CN1CCCC1
5 | 15 | O=C(c1cc2ccc(C(F)(F)F)cc2o1)N1CCC[C@H]1CN1CCCC1
6 | 7 | O=C(c1cc2cc(C(F)(F)F)ccc2o1)N1CCC[C@H]1CN1CCCCC1
7 | 4 | O=C(c1cc2cc(C(F)(F)F)ccc2o1)N1CCC[C@H]1CN1CCCC1
8 | 5 | O=C(c1cc2cc(Cl)ccc2o1)N1CCC[C@H]1CN1CCCC1
9 | 12 | O=C(c1sc2ccccc2c1Cl)N1CCC[C@H]1CN1CCCC1
10 | 14 | CCN(CC)C[C@@H]1CCCN1C(=O)c1cc2cc(C(F)(F)F)ccc2o1
11 | 46 | CCN(CC)C[C@@H]1CCCN1C(=O)c1cc2ccc(C(F)(F)F)cc2o1
12 | 11 | O=C(c1cc2cc(OC(F)(F)F)ccc2o1)N1CCC[C@H]1CN1CCCC1
13 | 4 | O=C(c1cc2ccccc2s1)N1CCC[C@H]1CN1CCCC1
14 | > 150 | O=C(c1cnc2ccccc2c1)N1CCC[C@H]1CN1CCCCC1
